We go through five compounds from patent US7342089B2, “Cyclic peptides for treatment for cachexia” (Palatin Technologies, Inc., priority 2002, dated 2008).

What is called EC50 is the concentration that produces a half-maximal response. The Ki is the dissociation constant of the complex between target and ligand, obtained from inhibition or displacement.

Positions of bridges follow the written chain, without caps; N, C: chain ends. Non-standard residues stand in square brackets, D forms with d. Residues, ends and D or L forms follow the SMILES beside them. 2Nal = N[C@@H](Cc1ccc2ccccc2c1)C(=O)O; d2Nal = N[C@H](Cc1ccc2ccccc2c1)C(=O)O; Nle = CCCC[C@H](N)C(=O)O

Assay [1] has as its target T1, MC1-R (B-16 mouse melanoma cells) (Mus musculus, UniProt Q01727). Nature of the assay: cAMP assay for agonist/antagonist status, MC1-R. In kind it is cell-based. The conditions noted are these: for EC50: read-out: EC50 as to MC1-R. On the procedure: Cells are incubated with the test peptides in the presence or absence of α-MSH for 1 hour at 37° C. cAMP levels in the cell lysates are measured using the EIA kit (Amersham). Data analysis and EC50 values are determined using nonlinear regression analysis with Prism Graph-Pad software.
The agonist/antagonist status with respect to MC1-R, MC4-R and MC5-R of certain peptides of the invention is determined. Antagonistic activity is determined by measuring the inhibition of α-MSH-induced or NDP-α-MSH-induced cAMP levels following exposure to the peptides as in the preceding descriptions.
For orientation: cAMP levels reflect the balance of adenylyl cyclase and phosphodiesterase activity.

The subject of a further assay is rats. The assay can be described thus: ICV feeding studies. Conditions: lowest value of multiple tests, parentheses = decrease. Type of assay: in vivo, rat. On the procedure: Change in food intake and body weight is evaluated for selected peptides. Rats with indwelling intracerebroventricular cannulas (ICV rats) are obtained from Hilltop Lab Animals, Inc. (Scottdale, Pa.). Animals are individually housed in conventional plexiglass hanging cages and maintained on a controlled 12 hour on/off light cycle. Water and powdered (LabDiet, 5P00 Prolab RMH 3000) or pelleted (Harlan Teklad 2018 18% Protein Rodent Diet) food is provided ad libitum. For 1 week before treatment, 24-hour food intake and body weight change is recorded to assess a baseline for the group during vehicle treatment. The rats are dosed ICV with vehicle or selected cyclic peptides (0.3-3 nmol). The changes in body weight and food intake for the 24 hour period after dosing are determined. The changes in body weight and food intake for the 48 hour and 72 hour periods after dosing are also measured to determine reversal of changes in body weight and food intake effects back to baseline levels.
A series of ICV feeding studies were conducted on rats. All animals were dosed on the first day with saline ICV, and given a pre-weighed food bowl with food weight recorded at 2 and 21 hours post-ICV injection. On day 2, animals were randomized based on the 21 hour food consumption, with animals eliminated due to low food consumption or food spills. […] Food weights were again recorded at 2, 4, 21 and 24 hours post-icv injection. In most instances, multiple different tests were conducted which each group containing between 8 and 12 members; the lowest value is shown below. Values are shown as percent increase (decrease) in aggregate food intake. “ND” means no test was conducted at that dose level.

Assay [2] deals with T1, MC1-R (B-16 mouse melanoma cells). Nature of the assay: Competitive inhibition binding assay using [I125]-NDP-α-MSH, MC1-R. Conditions: B-16 mouse melanoma cell membranes. On the procedure: Each assay is conducted in triplicate.
For the next assay, the target named is T2, hMC4-R (Homo sapiens, UniProt P32245).
T2 construct: expressed in transfected cells; host or cells: HEK-293
Nature of the assay: Competitive inhibition binding assay using [I125]-NDP-α-MSH, hMC4-R. Conditions: HEK-293 membranes, read-out: Ki MC4-R.

For another assay, the target named is T3, hMC4-R (HEK-293 cells) (Homo sapiens, UniProt P32245).
T3 construct: expressed in transfected cells; host or cells: HEK-293
Nature of the assay: cAMP assay for agonist/antagonist status and functional antagonism, MC4-R. Type of assay: cell-based. Conditions: for agonist/antagonist status as to MC4-R: cAMP assay; for Kb: functional antagonism, Schild's analysis vs NDP-α-MSH, read-out: pA2 value as to MC4-R (converted).

The next assay deals with T4, hMC3-R (Homo sapiens, UniProt P41968).
T4 construct: expressed in transfected cells; host or cells: HEK-293
The assay can be described thus: Competitive inhibition binding assay using [I125]-NDP-α-MSH, hMC3-R. Conditions: HEK-293 membranes, read-out: Ki MC3-R.

The target in another assay is T5, hMC5-R (Homo sapiens, UniProt P33032).
T5 construct: expressed in transfected cells; host or cells: HEK-293
The assay can be described thus: Competitive inhibition binding assay using [I125]-NDP-α-MSH, hMC5-R. Conditions: HEK-293 membranes, read-out: Ki MC5-R.

In another assay the target is T6, hMC3-R (HEK-293 cells) (Homo sapiens, UniProt P41968).
T6 construct: expressed in transfected cells; host or cells: HEK-293
The assay can be described thus: cAMP assay for agonist/antagonist status and functional antagonism, MC3-R. In kind it is cell-based. The conditions noted are these: for Kb: read-out: pA2 value as to MC3-R (converted).

T2 sequence (P32245 whole entry): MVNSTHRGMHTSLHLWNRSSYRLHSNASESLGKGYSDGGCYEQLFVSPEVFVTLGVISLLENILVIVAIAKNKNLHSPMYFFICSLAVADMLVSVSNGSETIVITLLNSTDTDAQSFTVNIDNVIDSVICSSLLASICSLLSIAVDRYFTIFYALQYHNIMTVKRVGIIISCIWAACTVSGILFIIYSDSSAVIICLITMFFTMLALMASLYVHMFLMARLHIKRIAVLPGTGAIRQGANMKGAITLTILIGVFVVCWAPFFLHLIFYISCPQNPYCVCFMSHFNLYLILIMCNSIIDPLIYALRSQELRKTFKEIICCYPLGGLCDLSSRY
T3 sequence (P32245 whole entry): as above
T5 sequence (P33032 whole entry): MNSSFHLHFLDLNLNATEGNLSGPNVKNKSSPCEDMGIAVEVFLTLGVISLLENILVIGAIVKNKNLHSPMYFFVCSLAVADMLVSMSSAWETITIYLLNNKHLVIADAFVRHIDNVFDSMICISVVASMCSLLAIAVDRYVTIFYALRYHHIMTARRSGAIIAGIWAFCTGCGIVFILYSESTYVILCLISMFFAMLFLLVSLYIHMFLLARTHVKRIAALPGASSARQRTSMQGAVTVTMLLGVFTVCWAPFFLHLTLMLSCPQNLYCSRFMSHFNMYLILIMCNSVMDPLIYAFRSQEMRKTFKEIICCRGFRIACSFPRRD
T1 sequence (Q01727 whole entry): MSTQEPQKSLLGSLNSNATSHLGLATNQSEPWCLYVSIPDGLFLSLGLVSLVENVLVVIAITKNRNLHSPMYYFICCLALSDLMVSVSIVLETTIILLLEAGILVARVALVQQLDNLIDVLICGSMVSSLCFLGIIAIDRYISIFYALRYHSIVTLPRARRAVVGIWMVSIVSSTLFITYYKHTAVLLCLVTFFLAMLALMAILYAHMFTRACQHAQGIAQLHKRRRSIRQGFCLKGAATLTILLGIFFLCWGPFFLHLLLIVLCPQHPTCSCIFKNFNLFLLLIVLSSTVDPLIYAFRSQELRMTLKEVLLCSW
T4 sequence (P41968 whole entry): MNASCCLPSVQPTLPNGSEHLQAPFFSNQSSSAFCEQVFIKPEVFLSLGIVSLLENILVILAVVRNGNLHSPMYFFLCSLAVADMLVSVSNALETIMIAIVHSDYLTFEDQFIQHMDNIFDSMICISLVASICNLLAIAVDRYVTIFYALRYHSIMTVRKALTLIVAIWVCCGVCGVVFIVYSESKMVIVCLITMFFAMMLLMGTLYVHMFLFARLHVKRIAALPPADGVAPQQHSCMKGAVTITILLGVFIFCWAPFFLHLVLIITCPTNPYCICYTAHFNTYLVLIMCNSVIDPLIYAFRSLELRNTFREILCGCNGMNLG
T6 sequence (P41968 whole entry): as above
Experimental for hMC3-R (HEK-293 cells): Assay for neutral antagonist.
Experimental details are similar to the analysis for agonistic activity and are described above. Briefly, cells are pre-incubated for 30 minutes with the test peptides at concentrations between 0.5 nM and 5000 nM. […] For Schild's analysis, the interactions are studied using at least 3 concentrations of the peptides, separated by a log unit, over a full range of the agonist (0.005-5000 nM). cAMP levels is measured in the cell lysates after appropriate dilution. Nonlinear regression analysis with the Prism Graph-Pad software is used for Schild's analysis and to obtain EC50 values. pA2 values are derived from the Schild's plot.
Experimental for hMC4-R (HEK-293 cells): Confluent HEK-293 cells over-expressing MC4-R are detached by enzyme free cell suspension buffer. […] The cells are plated in a 96 well plates at a density of 0.5×10^5 cells per well and pre-incubated for 30 minutes. The cells are then challenged with the test peptides dissolved in dimethylsulfoxide (DMSO) at a concentration range of 0.05-5000 nM in a total assay volume of 200 μL for 1 hour at 37° C. The concentration of DMSO is always held at 1% in the assay mixture. […] At the end of the incubation period the cells are disrupted by the addition of 50 μL lysis buffer from the cAMP EIA kit (Amersham). Complete rupture of the cells is ensured by pipetting the cells up and down multiple times. cAMP levels in the cell lysates are measured after appropriate dilution using the EIA kit (Amersham) method. Data analysis and EC50 values are determined by using nonlinear regression analysis with the Prism Graph-Pad software. […] Peptides with a response ratio of less than 0.1 are evaluated for antagonistic activity.
Briefly, cells are pre-incubated for 30 minutes with the test peptides at concentrations between 0.5 nM and 5000 nM. […] For Schild's analysis, the interactions are studied using at least 3 concentrations of the peptides, separated by a log unit, over a full range of the agonist (0.005-5000 nM). cAMP levels is measured in the cell lysates after appropriate dilution. Nonlinear regression analysis with the Prism Graph-Pad software is used for Schild's analysis and to obtain EC50 values. pA2 values are derived from the Schild's plot.

On to `CCCC[C@H](NC(C)=O)C(=O)N[C@H]1CC(=O)NCCCC[C@@H](C(=O)O)NC(=O)[C@H](Cc2c[nH]c3ccccc23)NC(=O)[C@H](CCCNC(=N)N)NC(=O)[C@@H](Cc2ccc3ccccc3c2)NC(=O)[C@H](Cc2c[nH]cn2)NC1=O` [Example 11, Ac-Nle-cyclo(-Asp-His-D-Nal 2-Arg-Trp-Lys)-OH], for which, in assay [1], the “agonist/antagonist status as to MC1-R” value is on record as “partial agonist” and the 50% effective concentration (EC50) was 57 nM. Also, in the assay with rats (1 nmol), the “Percent Increase (Decrease) In Aggregate Food Intake After ICV Administration of Peptide Compared to Vehicle (Saline)” value is 24%. The Ki in assay [2] worked out at 3 nM.
With `CCCC[C@H](NC(C)=O)C(=O)N[C@H]1CC(=O)NCCCC[C@@H](C(=O)O)NC(=O)[C@H](Cc2ccc3ccccc3c2)NC(=O)[C@H](CCCNC(=N)N)NC(=O)[C@@H](Cc2ccc3ccccc3c2)NC(=O)[C@H](Cc2c[nH]c3ccccc23)NC1=O` [Example 13, Ac-Nle-cyclo(-Asp-Trp-D-Nal 2-Arg-Nal 2-Lys)-OH] (Ac-[Nle]DW[d2Nal]R[2Nal]K-OH; lactam 2-7), in assay [1], the “agonist/antagonist status as to MC1-R” value is reported as “partial agonist”. For the same compound, affinity in assay [2] was put at a Ki of 119 nM.
In the case of `CCNC(=O)[C@@H]1CCCCNC(=O)C[C@H](NC(C)=O)C(=O)N[C@@H](Cc2c[nH]c3ccccc23)C(=O)N[C@H](Cc2ccc3ccccc3c2)C(=O)N[C@@H](CCCNC(=N)N)C(=O)N[C@@H](Cc2ccc3ccccc3c2)C(=O)N1` [Example 17, Ac-cyclo(-Asp-Trp-D-Nal 2-Arg-Nal 2-Lys)-NH—CH2—CH3] (Ac-DW[d2Nal]R[2Nal]K-NHEt; lactam 1-6), the Ki at hMC4-R came to 0.03 nM; on hMC3-R it was 1 nM; in assay [2], 194 nM; on hMC5-R it was 3 nM. The “agonist/antagonist status as to MC4-R” value on hMC4-R (HEK-293 cells) is given as “antagonist”. The Kb at hMC4-R (HEK-293 cells) is 1.74 nM; at hMC3-R (HEK-293 cells), 9.12 nM. Also, the “agonist/antagonist status as to MC1-R” value in assay [1] was “partial agonist”. The EC50 in assay [1] is more than 1000 nM. For the same compound, the entries for the “Percent Increase (Decrease) In Aggregate Food Intake After ICV Administration of Peptide Compared to Vehicle (Saline)” value in the assay on rats (0.3 nmol) and in the assay on rats (1 nmol) were 32% and 20%, respectively. For the same compound, the “agonist/antagonist status as to MC3-R” value at hMC3-R (HEK-293 cells) (cAMP assay) was “antagonist”.
For `CC(=O)N[C@H]1CC(=O)NCCCC[C@@H](C(=O)O)NC(=O)[C@H](Cc2c[nH]c3ccccc23)NC(=O)[C@H](CCCNC(=N)N)NC(=O)[C@@H](Cc2ccc3ccccc3c2)NC(=O)[C@H](Cc2c[nH]cn2)NC1=O` [Example 14, Ac-cyclo(-Asp-His-D-Nal 2-Arg-Trp-Lys)-OH], the inhibition constant (Ki) on hMC4-R was 2 nM; at hMC3-R, 55 nM; in assay [2], 181 nM; at hMC5-R it was 191 nM. Moreover, the “agonist/antagonist status as to MC4-R” value on hMC4-R (HEK-293 cells) is given as “antagonist”. Further, the Kb at hMC4-R (HEK-293 cells) was 186 nM. In assay [1], the “agonist/antagonist status as to MC1-R” value was “agonist”. Moreover, the 50% effective concentration (EC50) stood at 4420 nM in assay [1] and 1 nM at hMC3-R (HEK-293 cells) (cAMP assay, read-out: EC50 as to MC3-R). For the same compound, the “Percent Increase (Decrease) In Aggregate Food Intake After ICV Administration of Peptide Compared to Vehicle (Saline)” value with rats (1 nmol) turned out to be 16%. Besides, the “agonist/antagonist status as to MC3-R” value at hMC3-R (HEK-293 cells) (cAMP assay) is “antagonist”.
As to `CC(=O)N[C@H]1CC(=O)NCCCC[C@@H](C(=O)N(C)C)NC(=O)[C@H](Cc2ccc3ccccc3c2)NC(=O)[C@H](CCCNC(=N)N)NC(=O)[C@@H](Cc2ccc3ccccc3c2)NC(=O)[C@H](Cc2c[nH]c3ccccc23)NC1=O` [Example 18, Ac-cyclo(-Asp-Trp-D-Nal 2-Arg-Nal 2-Lys)-N(CH3)2] (Ac-DW[d2Nal]R[2Nal]K-NMe2; lactam 1-6), the Ki at hMC4-R was determined as 0.03 nM; on hMC3-R, 1 nM; in assay [2], 107 nM; at hMC5-R it was 4 nM. For the same compound, at hMC4-R (HEK-293 cells), the “agonist/antagonist status as to MC4-R” value is “antagonist”. Further, the Kb at hMC4-R (HEK-293 cells) was 2.04 nM; on hMC3-R (HEK-293 cells), 51.3 nM. Besides, in assay [1], the “agonist/antagonist status as to MC1-R” value was “inactive”. In addition, the “Percent Increase (Decrease) In Aggregate Food Intake After ICV Administration of Peptide Compared to Vehicle (Saline)” value with rats (0.3 nmol) and in the assay on rats (1 nmol) was 24% throughout. Moreover, the “agonist/antagonist status as to MC3-R” value on hMC3-R (HEK-293 cells) (cAMP assay) is reported as “antagonist”.
